# Results published in US7074789B2, “Kinase inhibitors” (Amgen Inc., priority 1999, dated 2006).
# Legend:
# Assay type in all cases: biochemical
# Lck = target: T1, Lck (Homo sapiens, UniProt P06239); test: Kinase inhibition assay (33P transfer), Lck; details: Table 3; for IC50: read-out: Lck-1
# T1 construct: Kinases are expressed as either kinase domains or full length constructs; made in house
# Outline: (§1)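 Filterless plate radiometric format: immobilized poly(Glu,Tyr) 4:1 or poly(Arg,Ser) 3:1, 33P-labelled ATP, tagged recombinant kinase (some with regulatory partners). Incorporated label counted after phosphoric acid wash.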
# Lyn = target: T2, Lyn (Homo sapiens, UniProt P07948); test: Kinase inhibition assay (33P transfer), Lyn; details: Table 6, Lyn-1 kinase inhibition class
# T2 construct: Kinases are expressed as either kinase domains or full length constructs; made in house
# Outline: (§2)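 Each enzyme, purified to near homogeneity by affinity chromatography, was incubated with ATP carrying 33P and a substrate polymer fixed to the plate. Unbound label was removed with dilute phosphoric acid (0.5%) before adding scintillant and counting. Potency is given as the compound level cutting label uptake by 50%.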
# Fyn = target: T3, Fyn (Homo sapiens, UniProt P06241); test: Kinase inhibition assay (33P transfer), Fyn; details: for IC50: read-out: Fyn-1
# T3 construct: Kinases are expressed as either kinase domains or full length constructs; made in house
# Outline: as §2
# EGFR = target: T4, EGFR (Homo sapiens, UniProt P00533); test: Kinase inhibition assay (33P transfer), EGFR; details: Table 2, kinase inhibition class; for IC50: read-out: EGFR-1
# T4 construct: Kinases are expressed as either kinase domains or full length constructs; made in house
# Outline: as §2
# Flt-1 = target: T5, Flt-1 (Homo sapiens, UniProt P17948); test: Kinase inhibition assay (33P transfer), Flt-1
# T5 construct: Kinases are expressed as either kinase domains or full length constructs; made in house
# Outline: as §2
# Tek = target: T6, Tek (Homo sapiens, UniProt Q02763); test: Kinase inhibition assay (33P transfer), Tek; details: read-out: Tek-1
# T6 construct: Kinases are expressed as either kinase domains or full length constructs; made in house
# Outline: as §2
# c-Met = target: T7, c-Met (Homo sapiens, UniProt P08581); test: Kinase inhibition assay (33P transfer), c-Met; details: Table 2, kinase inhibition class; for IC50: read-out: Met-1
# T7 construct: Kinases are expressed as either kinase domains or full length constructs; made in house
# Outline: as §2
# AKT = target: T8, AKT (Homo sapiens, UniProt Q9Y243); test: Kinase inhibition assay (33P transfer), AKT; details: Table 2, kinase inhibition class; for IC50: read-out: AKT3-1
# T8 construct: Kinases are expressed as either kinase domains or full length constructs; made in house
# Outline: as §1
# IGFR-1 = target: T9, IGFR-1 (Homo sapiens, UniProt P08069); test: Kinase inhibition assay (33P transfer), IGFR-1; details: Table 2, kinase inhibition class
# T9 construct: Kinases are expressed as either kinase domains or full length constructs; made in house
# EPHB4 = target: T10, EPHB4 (Homo sapiens, UniProt P54760); test: Kinase inhibition assay (33P transfer), EPHB4; details: for IC50: read-out: EPHB4-1
# T10 construct: Kinases are expressed as either kinase domains or full length constructs; made in house
# T10 sequence (P54760 16-987): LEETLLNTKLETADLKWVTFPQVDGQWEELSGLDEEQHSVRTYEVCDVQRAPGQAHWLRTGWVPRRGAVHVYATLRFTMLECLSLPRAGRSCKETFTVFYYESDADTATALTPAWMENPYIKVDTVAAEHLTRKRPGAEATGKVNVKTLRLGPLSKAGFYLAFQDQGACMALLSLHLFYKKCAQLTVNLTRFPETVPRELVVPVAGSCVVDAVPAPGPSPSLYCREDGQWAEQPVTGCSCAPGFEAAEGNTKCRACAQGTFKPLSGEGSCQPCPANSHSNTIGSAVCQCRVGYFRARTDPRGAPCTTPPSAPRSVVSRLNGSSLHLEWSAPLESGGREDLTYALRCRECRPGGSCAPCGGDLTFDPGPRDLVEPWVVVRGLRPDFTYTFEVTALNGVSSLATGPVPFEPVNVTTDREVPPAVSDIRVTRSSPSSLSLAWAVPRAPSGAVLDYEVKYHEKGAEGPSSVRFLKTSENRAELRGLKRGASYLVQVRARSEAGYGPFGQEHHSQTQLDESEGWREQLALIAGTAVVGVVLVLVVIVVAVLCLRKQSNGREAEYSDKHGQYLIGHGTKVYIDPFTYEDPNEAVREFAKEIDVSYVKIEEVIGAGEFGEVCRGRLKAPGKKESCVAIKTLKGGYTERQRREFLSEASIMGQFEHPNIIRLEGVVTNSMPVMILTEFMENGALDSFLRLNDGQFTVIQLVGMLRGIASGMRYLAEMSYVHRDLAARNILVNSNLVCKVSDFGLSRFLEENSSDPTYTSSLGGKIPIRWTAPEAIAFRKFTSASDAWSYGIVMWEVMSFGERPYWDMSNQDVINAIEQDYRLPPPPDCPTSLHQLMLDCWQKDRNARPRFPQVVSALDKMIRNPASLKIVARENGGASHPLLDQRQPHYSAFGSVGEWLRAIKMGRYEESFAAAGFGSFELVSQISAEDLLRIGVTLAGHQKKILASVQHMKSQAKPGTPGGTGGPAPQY
# Ret-1 = target: T11, Ret-1 (Homo sapiens, UniProt P07949); test: Kinase inhibition assay (33P transfer), Ret; details: Table 6, Ret-1 kinase inhibition class
# T11 construct: Kinases are expressed as either kinase domains or full length constructs; made in house
# FGFR1 = target: T12, FGFR1 (Homo sapiens, UniProt P11362); test: Kinase inhibition assay (33P transfer), FGFR1; details: read-out: FGFR1-1
# T12 construct: Kinases are expressed as either kinase domains or full length constructs; made in house
# ErbB4 = target: T13, ErbB4 (Homo sapiens, UniProt Q15303); test: Kinase inhibition assay (33P transfer), ErbB4; details: read-out: ErbB4-1
# T13 construct: Kinases are expressed as either kinase domains or full length constructs; made in house
# T6 sequence (Q02763 23-1124, species assumed): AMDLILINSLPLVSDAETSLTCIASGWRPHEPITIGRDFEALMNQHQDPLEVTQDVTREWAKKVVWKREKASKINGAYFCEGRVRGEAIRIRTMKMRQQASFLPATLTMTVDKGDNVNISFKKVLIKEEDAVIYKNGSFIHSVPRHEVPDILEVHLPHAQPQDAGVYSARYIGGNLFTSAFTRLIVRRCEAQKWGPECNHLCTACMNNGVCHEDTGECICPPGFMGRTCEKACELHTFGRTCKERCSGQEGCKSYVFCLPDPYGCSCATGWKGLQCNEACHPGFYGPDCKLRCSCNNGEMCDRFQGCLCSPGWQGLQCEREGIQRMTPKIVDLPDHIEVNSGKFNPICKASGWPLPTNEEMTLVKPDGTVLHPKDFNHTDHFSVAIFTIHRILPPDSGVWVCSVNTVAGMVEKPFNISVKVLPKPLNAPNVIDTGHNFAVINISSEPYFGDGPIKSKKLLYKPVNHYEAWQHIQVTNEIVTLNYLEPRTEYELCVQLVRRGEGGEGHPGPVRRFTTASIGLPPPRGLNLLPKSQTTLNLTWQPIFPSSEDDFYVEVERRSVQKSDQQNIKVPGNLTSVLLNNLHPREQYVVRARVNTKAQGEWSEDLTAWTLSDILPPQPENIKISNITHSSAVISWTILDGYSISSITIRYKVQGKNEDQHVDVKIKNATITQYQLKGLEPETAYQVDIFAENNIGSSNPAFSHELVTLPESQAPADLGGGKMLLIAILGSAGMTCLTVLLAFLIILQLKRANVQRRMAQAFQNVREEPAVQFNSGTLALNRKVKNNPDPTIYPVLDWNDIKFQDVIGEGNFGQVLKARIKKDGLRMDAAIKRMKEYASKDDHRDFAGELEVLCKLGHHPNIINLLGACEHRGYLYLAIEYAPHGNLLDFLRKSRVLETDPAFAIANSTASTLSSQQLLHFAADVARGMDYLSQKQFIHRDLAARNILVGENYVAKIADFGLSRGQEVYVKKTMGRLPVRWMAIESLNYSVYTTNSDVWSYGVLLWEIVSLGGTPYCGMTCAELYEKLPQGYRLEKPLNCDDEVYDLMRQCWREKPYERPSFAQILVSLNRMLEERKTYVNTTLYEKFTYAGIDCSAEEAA
# T8 sequence (Q9Y243 whole entry, the tested form may be a part): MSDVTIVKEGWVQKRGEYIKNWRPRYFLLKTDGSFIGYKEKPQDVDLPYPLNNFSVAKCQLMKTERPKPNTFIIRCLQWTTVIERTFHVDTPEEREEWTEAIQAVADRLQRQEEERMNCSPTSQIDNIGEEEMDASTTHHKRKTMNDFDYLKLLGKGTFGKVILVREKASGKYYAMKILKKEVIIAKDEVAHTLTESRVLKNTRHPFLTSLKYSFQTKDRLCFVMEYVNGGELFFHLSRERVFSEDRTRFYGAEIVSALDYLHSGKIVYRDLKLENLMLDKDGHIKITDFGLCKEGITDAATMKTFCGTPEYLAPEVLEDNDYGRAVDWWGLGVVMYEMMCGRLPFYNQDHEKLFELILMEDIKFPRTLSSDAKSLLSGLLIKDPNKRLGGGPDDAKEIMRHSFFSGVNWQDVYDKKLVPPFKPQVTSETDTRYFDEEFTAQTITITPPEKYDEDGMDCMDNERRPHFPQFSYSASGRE
# T5 sequence (P17948 27-1338, species assumed): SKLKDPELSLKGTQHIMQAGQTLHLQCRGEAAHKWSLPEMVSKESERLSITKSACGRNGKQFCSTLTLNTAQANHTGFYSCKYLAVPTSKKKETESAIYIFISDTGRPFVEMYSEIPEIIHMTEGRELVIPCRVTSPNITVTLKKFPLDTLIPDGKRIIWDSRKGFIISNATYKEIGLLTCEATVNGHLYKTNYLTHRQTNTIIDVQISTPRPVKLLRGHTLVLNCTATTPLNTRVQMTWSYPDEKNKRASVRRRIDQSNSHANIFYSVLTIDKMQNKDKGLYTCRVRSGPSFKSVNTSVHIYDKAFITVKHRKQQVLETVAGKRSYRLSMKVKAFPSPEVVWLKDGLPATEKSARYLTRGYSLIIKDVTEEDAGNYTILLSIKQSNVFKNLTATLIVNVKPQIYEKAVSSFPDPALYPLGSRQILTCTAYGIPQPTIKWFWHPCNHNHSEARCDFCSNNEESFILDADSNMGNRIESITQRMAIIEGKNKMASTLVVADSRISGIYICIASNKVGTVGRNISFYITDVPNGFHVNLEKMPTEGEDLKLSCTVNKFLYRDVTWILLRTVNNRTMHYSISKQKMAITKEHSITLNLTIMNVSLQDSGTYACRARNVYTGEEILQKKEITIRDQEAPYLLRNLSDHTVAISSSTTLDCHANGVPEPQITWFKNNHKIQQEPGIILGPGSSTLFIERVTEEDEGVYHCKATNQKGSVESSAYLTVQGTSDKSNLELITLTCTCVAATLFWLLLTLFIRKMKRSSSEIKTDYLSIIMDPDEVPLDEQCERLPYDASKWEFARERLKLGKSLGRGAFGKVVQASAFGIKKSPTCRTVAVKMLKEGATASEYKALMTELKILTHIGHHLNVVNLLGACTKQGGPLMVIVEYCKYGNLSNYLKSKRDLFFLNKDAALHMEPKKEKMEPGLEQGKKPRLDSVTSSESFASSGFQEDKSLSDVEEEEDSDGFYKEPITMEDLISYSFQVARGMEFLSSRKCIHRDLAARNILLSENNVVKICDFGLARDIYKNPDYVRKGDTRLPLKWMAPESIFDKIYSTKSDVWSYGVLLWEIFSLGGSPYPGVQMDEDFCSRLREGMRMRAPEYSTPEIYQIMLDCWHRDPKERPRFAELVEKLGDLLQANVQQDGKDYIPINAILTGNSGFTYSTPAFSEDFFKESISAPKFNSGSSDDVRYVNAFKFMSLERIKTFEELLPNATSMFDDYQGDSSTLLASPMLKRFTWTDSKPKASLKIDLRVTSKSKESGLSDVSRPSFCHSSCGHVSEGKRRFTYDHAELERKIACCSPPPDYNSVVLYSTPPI
# T3 sequence (P06241 whole entry, species assumed, the tested form may be a part): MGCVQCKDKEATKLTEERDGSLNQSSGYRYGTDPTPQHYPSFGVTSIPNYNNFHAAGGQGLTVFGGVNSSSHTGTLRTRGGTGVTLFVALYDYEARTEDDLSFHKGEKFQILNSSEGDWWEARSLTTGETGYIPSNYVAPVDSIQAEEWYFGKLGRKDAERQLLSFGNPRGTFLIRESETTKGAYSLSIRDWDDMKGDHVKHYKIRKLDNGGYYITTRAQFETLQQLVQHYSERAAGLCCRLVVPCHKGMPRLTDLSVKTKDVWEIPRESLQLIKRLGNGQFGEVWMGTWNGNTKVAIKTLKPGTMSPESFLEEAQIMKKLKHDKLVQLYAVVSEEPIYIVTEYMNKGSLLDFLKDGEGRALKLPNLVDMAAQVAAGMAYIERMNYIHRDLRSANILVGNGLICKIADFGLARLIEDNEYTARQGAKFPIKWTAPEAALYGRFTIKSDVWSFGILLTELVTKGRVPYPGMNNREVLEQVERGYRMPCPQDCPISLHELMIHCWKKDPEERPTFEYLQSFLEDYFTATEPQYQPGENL
# T2 sequence (P07948 whole entry, species assumed, the tested form may be a part): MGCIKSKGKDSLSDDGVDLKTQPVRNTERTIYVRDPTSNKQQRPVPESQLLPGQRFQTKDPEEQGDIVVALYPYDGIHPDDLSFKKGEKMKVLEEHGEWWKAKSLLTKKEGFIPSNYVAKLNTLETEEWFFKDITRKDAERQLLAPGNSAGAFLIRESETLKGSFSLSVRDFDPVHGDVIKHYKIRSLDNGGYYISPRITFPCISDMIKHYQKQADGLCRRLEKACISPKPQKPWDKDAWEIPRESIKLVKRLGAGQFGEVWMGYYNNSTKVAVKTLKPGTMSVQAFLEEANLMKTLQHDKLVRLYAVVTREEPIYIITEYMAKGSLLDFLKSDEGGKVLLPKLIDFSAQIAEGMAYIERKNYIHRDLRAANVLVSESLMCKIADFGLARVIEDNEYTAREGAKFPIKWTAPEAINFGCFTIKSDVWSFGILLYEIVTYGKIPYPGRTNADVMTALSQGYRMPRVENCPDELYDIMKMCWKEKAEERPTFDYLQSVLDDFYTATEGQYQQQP
# T11 sequence (P07949 29-1114): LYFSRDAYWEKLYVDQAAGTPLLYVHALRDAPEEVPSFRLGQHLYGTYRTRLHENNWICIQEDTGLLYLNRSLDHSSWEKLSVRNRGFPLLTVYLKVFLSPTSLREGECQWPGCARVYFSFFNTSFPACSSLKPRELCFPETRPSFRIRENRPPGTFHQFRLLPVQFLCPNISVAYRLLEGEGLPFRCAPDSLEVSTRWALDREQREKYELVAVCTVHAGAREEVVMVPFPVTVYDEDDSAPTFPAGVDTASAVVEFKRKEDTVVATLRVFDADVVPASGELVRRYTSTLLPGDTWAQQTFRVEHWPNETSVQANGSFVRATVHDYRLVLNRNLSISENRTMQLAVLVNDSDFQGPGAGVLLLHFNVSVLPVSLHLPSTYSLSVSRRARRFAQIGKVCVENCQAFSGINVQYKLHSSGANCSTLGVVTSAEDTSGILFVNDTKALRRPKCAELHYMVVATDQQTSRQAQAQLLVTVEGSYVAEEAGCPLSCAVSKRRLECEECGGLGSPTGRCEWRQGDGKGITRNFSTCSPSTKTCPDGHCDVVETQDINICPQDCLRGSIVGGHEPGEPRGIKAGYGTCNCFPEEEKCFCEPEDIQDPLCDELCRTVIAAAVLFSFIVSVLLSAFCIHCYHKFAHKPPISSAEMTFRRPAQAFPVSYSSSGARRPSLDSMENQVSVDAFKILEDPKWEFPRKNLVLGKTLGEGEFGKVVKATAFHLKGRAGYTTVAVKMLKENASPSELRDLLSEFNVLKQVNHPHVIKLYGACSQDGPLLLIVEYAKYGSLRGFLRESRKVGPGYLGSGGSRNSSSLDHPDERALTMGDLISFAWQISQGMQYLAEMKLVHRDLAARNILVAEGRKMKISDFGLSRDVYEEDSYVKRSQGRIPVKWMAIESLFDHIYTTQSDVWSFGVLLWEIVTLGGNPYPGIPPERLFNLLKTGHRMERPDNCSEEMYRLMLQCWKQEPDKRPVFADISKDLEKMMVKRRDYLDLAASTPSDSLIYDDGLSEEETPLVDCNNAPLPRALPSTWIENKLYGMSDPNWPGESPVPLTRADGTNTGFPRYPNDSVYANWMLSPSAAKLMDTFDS
Compound,IC50 (Lck) [µM],IC50 (Lyn) [µM],IC50 (Fyn) [µM],IC50 (EGFR) [µM],IC50 (Flt-1) [µM],IC50 (Tek) [µM],IC50 (c-Met) [µM],IC50 (AKT) [µM],IC50 (IGFR-1) [µM],IC50 (EPHB4) [µM],IC50 (Ret-1) [µM],IC50 (FGFR1) [µM],IC50 (ErbB4) [µM],other results
COc1cc(Nc2ncnc(-n3cc(C)c4ccccc43)n2)cc(OC)c1OC [Compound 323],8.94 to 11.5,> 11.5,> 11.5,> 11.5,6.13 to 8.94,> 11.5,8.94 to 11.5,> 11.5,> 11.5,> 11.5,> 11.5,> 11.5,–,–
COc1cc(Nc2ncnc(N3CCc4ccccc43)n2)cc(OC)c1OC [Compound 184],1.05 to 6.33,1.05 to 6.33,1.05 to 6.33,> 11.9,< 1.05,> 11.9,9.22 to 11.9,> 11.9,> 11.9,6.33 to 9.22,> 11.9,6.33 to 9.22,–,–
COc1cc(Nc2ncnc(N3CCCCC3)n2)cc(OC)c1OC [Compound 207],10.1 to 13,–,–,> 13,1.16 to 6.95,> 13,> 13,> 13,> 13,> 13,–,> 13,–,–
COc1ccc(Nc2ncnc(Nc3ccc(N(C)C)cc3)n2)cc1OC [Compound 114],> 12.3,–,–,> 12.3,> 12.3,> 12.3,> 12.3,> 12.3,6.55 to 9.55,> 12.3,1.09 to 6.55,> 12.3,–,–
COc1ccc(Nc2ncnc(Nc3cccc(C)c3)n2)cc1OC [Compound 108],10.4 to 13.3,< 1.19,1.19 to 7.11,< 1.19,> 13.3,> 13.3,> 13.3,> 13.3,7.11 to 10.4,> 13.3,–,1.19 to 7.11,10.4 to 13.3,–
COc1cc(Nc2ncnc(Nc3ccc(Br)c(Cl)c3)n2)cc(OC)c1OC [Compound 936],0.857 to 5.14,< 0.857,< 0.857,< 0.857,0.857 to 5.14,> 9.64,> 9.64,> 9.64,< 0.857,< 0.857,–,0.857 to 5.14,0.857 to 5.14,–
Cc1cccc(Nc2ncnc(Nc3cccc(Br)c3)n2)c1 [Compound 109],> 12.6,–,–,< 1.12,–,> 12.6,> 12.6,> 12.6,> 12.6,> 12.6,–,–,> 12.6,–
COc1cc(Nc2ncnc(-c3ccccc3)n2)cc(OC)c1OC [Compound 970],> 13.3,> 13.3,10.3 to 13.3,> 13.3,7.09 to 10.3,> 13.3,> 13.3,> 13.3,> 13.3,> 13.3,> 13.3,> 13.3,–,–
COc1ccc(Nc2ncnc(-n3c(N)nc4ccccc43)n2)cc1O [Compound 286],1.14 to 6.87,> 12.9,> 12.9,6.87 to 10,< 1.14,1.14 to 6.87,1.14 to 6.87,6.87 to 10,< 1.14,6.87 to 10,< 1.14,< 1.14,–,–
C=CCN(c1ccc(Cl)cc1)c1ncnc(Nc2cc(OC)c(OC)c(OC)c2)n1 [Compound 972],0.935 to 5.61,< 0.935,0.935 to 5.61,< 0.935,0.935 to 5.61,8.18 to 10.5,0.935 to 5.61,> 10.5,5.61 to 8.18,0.935 to 5.61,–,0.935 to 5.61,0.935 to 5.61,–
CCOc1ccc(Nc2ncnc(Nc3ccc(OCc4ccccc4)cc3)n2)cc1OCC [Compound 170],> 9.84,> 9.84,> 9.84,0.874 to 5.25,> 9.84,5.25 to 7.65,5.25 to 7.65,0.874 to 5.25,> 9.84,5.25 to 7.65,–,> 9.84,7.65 to 9.84,–
COc1ccc(Nc2ncnc(Nc3cc(OC)c(OC)c(OC)c3)n2)cc1OC [Compound 36],0.968 to 5.81,> 10.9,> 10.9,8.47 to 10.9,< 0.968,8.47 to 10.9,> 10.9,> 10.9,> 10.9,8.47 to 10.9,> 10.9,> 10.9,–,–
COc1cc(Nc2ncnc(Nc3ccc4c(c3)OCO4)n2)cc(OC)c1OC [Compound 252],< 1.01,< 1.01,1.01 to 6.04,1.01 to 6.04,< 1.01,> 11.3,> 11.3,> 11.3,< 1.01,1.01 to 6.04,> 11.3,1.01 to 6.04,–,–
COCCOc1ccc(Nc2ncnc(Nc3cc(-c4ccco4)n[nH]3)n2)cc1OCCOC [Compound 328],0.856 to 5.13,0.856 to 5.13,5.13 to 7.49,0.856 to 5.13,< 0.856,5.13 to 7.49,< 0.856,5.13 to 7.49,< 0.856,> 9.63,0.856 to 5.13,0.856 to 5.13,–,–
COc1cc(Nc2ncnc(-n3c(N)nc4ccccc43)n2)ccc1OCCn1ccnn1 [Compound 324],> 10.1,> 10.1,> 10.1,> 10.1,< 0.9,0.9 to 5.4,> 10.1,> 10.1,< 0.9,> 10.1,< 0.9,< 0.9,–,–
COc1ccc(Nc2ncnc(Nc3cc(OC)c(OC)c(OC)c3)n2)cn1 [Compound 28],–,–,–,–,–,–,–,–,–,–,–,–,–,Lck-1 (Lck): B (B>0.4 and <2.4 ug/mL); Lyn-1 (Lyn): B (B>0.4 and <2.4 ug/mL); Fyn-1 (Fyn): B (B>0.4 and <2.4 ug/mL); EGFR-1 (EGFR): B (B>0.4 and <2.4 ug/mL); Met-1 (c-Met): E (E>4.5 ug/mL); AKT3-1 (AKT): E (E>4.5 ug/mL); IGFR-1 (IGFR-1): B (B>0.4 and <2.4 ug/mL); EPHB4-1 (EPHB4): B (B>0.4 and <2.4 ug/mL)
COc1cc(Nc2ncnc(Nc3cc(OC)c(OC)c(OC)c3)n2)cc(OC)n1 [Compound 253],8.45 to 10.9,> 10.9,> 10.9,5.79 to 8.45,–,–,> 10.9,> 10.9,> 10.9,> 10.9,–,–,–,–
COc1cc(Nc2ncnc(Nc3ccc(C)c(N)c3)n2)cc(OC)c1OC [Compound 935],1.05 to 6.28,< 1.05,< 1.05,< 1.05,1.05 to 6.28,> 11.8,> 11.8,> 11.8,1.05 to 6.28,1.05 to 6.28,–,1.05 to 6.28,1.05 to 6.28,–
